Like-named read-outs stand apart in the source and are kept apart here.
What was measured:
[1] = for RFU change (Correlation analysis): probe-specific excitation λ, emission 545 nm; for carbohydrate can be detected and/or differentiated by the LCO: conclusion from change in signal magnitude and/or shift in λmax
How it was run: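 Each LCO probe at 3 μM was added to two-fold serial dilutions of carbohydrate in dH2O (10–0.039 mg/ml for β-1,3-glucan, cellulose, chitin; 5–0.019 mg/ml for the others), run in triplicate. Excitation spectra were scanned 300–500 nm with emission at 545 nm. Detection was a reproducible λmax and/or RFU shift versus negative control, with linear regression of RFU against concentration.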

[2] = How it was run: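 LCO probes (3 μM) were added to serial two-fold dilutions of carbohydrate suspensions in dH2O, with excitation scanned 300–500 nm and emission at 545 nm. Detection was a reproducible λmax and/or RFU change versus no-carbohydrate control. RFU was regressed linearly against concentration at the λmax or the lowest-background excitation.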
[3] = remark: listed apart in the source
How it was run: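 LCO probes at 3 μM mixed with serial two-fold carbohydrate dilutions in water (10–0.039 or 5–0.019 mg/ml), run in triplicate. Excitation scanned 300–500 nm with emission at 545 nm; detection based on reproducible λmax or RFU shift against the no-carbohydrate control, with linear regression of RFU on concentration.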

[4] = for RFU change (Correlation analysis): probe-specific excitation λ, emission 545 nm; for carbohydrate can be detected and/or differentiated by the LCO: conclusion from change in signal magnitude and/or shift in λmax; remark: listed apart in the source
How it was run: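 LCO probes at 3 μM mixed with serial two-fold dilutions of carbohydrate in dH2O (10–0.039 or 5–0.019 mg/ml, depending on carbohydrate), in triplicate. Excitation scanned 300–500 nm or fixed per probe (λmax or lowest background), emission at 545 nm. Detection taken as reproducible λmax/RFU shift vs no-carbohydrate control; RFU regressed linearly on concentration.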

[5] = for RFU change (Correlation analysis): probe-specific excitation λ, emission 545 nm; for carbohydrate can be detected and/or differentiated by the LCO: conclusion from change in signal magnitude and/or shift in λmax; for Gradient Parameters (gradient of regression line) / Linear relationship / Quality of Gradient: linear regression
How it was run: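 LCO probes at 3 μM mixed with serial twofold carbohydrate dilutions in dH2O (10–0.039 or 5–0.019 mg/ml, depending on carbohydrate). Excitation scanned 300–500 nm, emission read at 545 nm; detection defined as reproducible shift in λmax and/or RFU relative to negative control, with linear regression of RFU against concentration.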

[6] = remark: listed apart in the source
How it was run: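 3 μM of each LCO probe was added to serial two-fold carbohydrate dilutions in water (10–0.039 or 5–0.019 mg/ml). Excitation spectra were scanned 300–500 nm with emission at 545 nm, in triplicate. Detection was defined as a reproducible shift in λmax and/or RFU versus negative control, with linear regression of RFU against concentration.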

[7] = Chitin 10-[…], 3 μM probe, spectral analysis, Excitation 300-500, Emission 545
[8] = cellulose concentration vs RFU, linear regression
[9] = chitin concentration vs RFU, linear regression
[10] = β-1,3-glucan concentration vs RFU, linear regression
[11] = sodium alginate concentration vs RFU, linear regression
[12] = glucose concentration vs RFU, linear regression
[13] = Cellulobiose 5-0.019 mg/ml, 3 μM probe, spectral analysis, Excitation 300-500, Emission 545
[14] = amylose concentration vs RFU, linear regression
[15] = cellulobiose concentration vs RFU, linear regression
[16] = Glycogen 5-0.019 mg/ml, 3 μM probe, spectral analysis, Excitation 300-500, Emission 545
[17] = Chondroitin Sulfate A 5-0.019 mg/ml, 3 μM probe, spectral analysis, Excitation 300-500, Emission 545
[18] = Chondroitin Sulfate A concentration vs RFU, linear regression

Question: With O=C([O-])CC[C@H](NC(=O)Cc1cc(-c2cccs2)sc1-c1ccc(-c2sc(-c3cccs3)cc2CC(=O)N[C@@H](CCC(=O)[O-])C(=O)[O-])s1)C(=O)[O-].[Na+].[Na+].[Na+].[Na+] [pHTA-Glu, penta Hydrogen Thiophene Acetic acid Glutamic acid] as the compound, how does the “RFU change (Correlation analysis)” value ([1]; Cellulose 10-[…], 3 μM probe) read?
Answer: Decrease

Question: What about the “RFU change (Signal deviation with increasing [Carbohydrate])” value ([1]; Cellulose 10-[…], 3 μM probe, spectral analysis, Excitation 300-500, Emission 545) of the same compound?
Answer: Unclear

Question: And the “RFU change (Correlation analysis)” value ([1]; Chitin 10-[…], 3 μM probe)?
Answer: Increases

Question: What about the “RFU change (Signal deviation with increasing [Carbohydrate])” value [1, 7] of the same compound?
Answer: Increases

Question: What about the λmax change [1, 7] of the same compound?
Answer: Redshift

Question: And the “carbohydrate can be detected and/or differentiated by the LCO” value ([1]; Chitin)?
Answer: can be detected and/or differentiated

Question: What about the “Gradient Parameters (gradient of regression line)” value (from here on “Gradient Parameters”) [1, 8] of the same compound?
Answer: −139.6 ± 344.8

Question: And the “Quality of Gradient” value [1, 8]?
Answer: Horizontal

Question: And the “Gradient Parameters” value [1, 9]?
Answer: 2824 ± 156.6

Question: And the Linear relationship [1, 9]?
Answer: Significant

Question: What about the “Quality of Gradient” value [1, 9] of the same compound?
Answer: Positive

Question: What about the Sensitivity ([1]; to cellulose) of the same compound?
Answer: No

Question: And the Sensitivity ([1]; to chitin)?
Answer: Yes

Question: And the Sensitivity ([1]; to β-1,3-glucan)?
Answer: Yes

Question: And the “carbohydrate can be detected and/or differentiated by the LCO” value ([1]; β-1,3-Glucan)?
Answer: can be detected and/or differentiated

Question: What about the “RFU change (Correlation analysis)” value ([1]; β-1,3-glucan 10-[…], 3 μM probe) of the same compound?
Answer: Decrease

Question: What about the “RFU change (Signal deviation with increasing [Carbohydrate])” value ([1]; β-1,3-glucan 10-[…], 3 μM probe, spectral analysis, Excitation 300-500, Emission 545) of the same compound?
Answer: Decrease

Question: What about the “Gradient Parameters” value [1, 10] of the same compound?
Answer: −898.7 ± 117.0

Question: What about the “Quality of Gradient” value [1, 10] of the same compound?
Answer: Negative

Question: What about the “RFU change (Correlation analysis)” value ([2]; Sodium alginate 5-0.019 mg/ml, 3 μM probe, probe-specific excitation λ, emission 545 nm) of the same compound?
Answer: Increases

Question: What about the “RFU change (Signal deviation with increasing [Carbohydrate])” value ([2]; Sodium alginate 5-0.019 mg/ml, 3 μM probe, spectral analysis, Excitation 300-500, Emission 545) of the same compound?
Answer: Increases

Question: And the “Gradient Parameters” value [2, 11]?
Answer: 88.7 ± 62.0

Question: And the “Quality of Gradient” value [2, 11]?
Answer: Horizontal

Question: And the Sensitivity ([2]; to sodium alginate)?
Answer: No

Question: And the “RFU change (Correlation analysis)” value ([3]; Glucose 5-0.019 mg/ml, 3 μM probe, probe-specific excitation λ, emission 545 nm)?
Answer: Decreases

Question: What about the “RFU change (Signal deviation with increasing [Carbohydrate])” value ([3]; Glucose 5-0.019 mg/ml, 3 μM probe, spectral analysis, Excitation 300-500, Emission 545) of the same compound?
Answer: Decreases

Question: And the “carbohydrate can be detected and/or differentiated by the LCO” value ([3]; Glucose, conclusion from change in signal magnitude and/or shift in λmax)?
Answer: can be detected and/or differentiated

Question: And the “Gradient Parameters” value [3, 12]?
Answer: −116.0 ± 41.0

Question: What about the Linear relationship [3, 12] of the same compound?
Answer: Significant

Question: And the “Quality of Gradient” value [3, 12]?
Answer: Negative

Question: What about the Sensitivity ([3]; to glucose) of the same compound?
Answer: Yes

Question: What about the “RFU change (Correlation analysis)” value ([4]; Amylose 5-0.019 mg/ml, 3 μM probe) of the same compound?
Answer: Increases

Question: And the “RFU change (Signal deviation with increasing [Carbohydrate])” value ([4]; Amylose 5-0.019 mg/ml, 3 μM probe, spectral analysis, Excitation 300-500, Emission 545)?
Answer: Increases

Question: And the “carbohydrate can be detected and/or differentiated by the LCO” value ([4]; Amylose)?
Answer: can be detected and/or differentiated

Question: What about the “RFU change (Correlation analysis)” value ([4]; Cellulobiose 5-0.019 mg/ml, 3 μM probe) of the same compound?
Answer: Increases

Question: And the “RFU change (Signal deviation with increasing [Carbohydrate])” value [4, 13]?
Answer: Increases

Question: What about the λmax change [4, 13] of the same compound?
Answer: No change

Question: And the “carbohydrate can be detected and/or differentiated by the LCO” value ([4]; Cellulobiose)?
Answer: can be detected and/or differentiated

Question: What about the “Gradient Parameters” value [4, 14] of the same compound?
Answer: 493.6 ± 346.9

Question: What about the “Quality of Gradient” value [4, 14] of the same compound?
Answer: Horizontal

Question: And the “Gradient Parameters” value [4, 15]?
Answer: 178.6 ± 35.1

Question: And the Linear relationship [4, 15]?
Answer: Significant

Question: And the “Quality of Gradient” value [4, 15]?
Answer: Positive

Question: What about the Sensitivity ([4]; to amylose) of the same compound?
Answer: Yes

Question: What about the Sensitivity ([4]; to cellulobiose) of the same compound?
Answer: Yes

Question: And the “RFU change (Correlation analysis)” value ([5]; Glycogen 5-0.019 mg/ml, 3 μM probe)?
Answer: Decreases

Question: And the “RFU change (Signal deviation with increasing [Carbohydrate])” value [5, 16]?
Answer: Decreases

Question: What about the λmax change [5, 16] of the same compound?
Answer: Redshift

Question: And the “carbohydrate can be detected and/or differentiated by the LCO” value ([5]; Glycogen)?
Answer: can be detected and/or differentiated

Question: What about the “RFU change (Correlation analysis)” value ([5]; Heparin 5-0.019 mg/ml, 3 μM probe) of the same compound?
Answer: Unclear

Question: What about the “RFU change (Signal deviation with increasing [Carbohydrate])” value ([5]; Heparin 5-0.019 mg/ml, 3 μM probe, spectral analysis, Excitation 300-500, Emission 545) of the same compound?
Answer: Unclear

Question: What about the “carbohydrate can be detected and/or differentiated by the LCO” value ([5]; Heparin) of the same compound?
Answer: can be detected and/or differentiated

Question: And the “Gradient Parameters” value ([5]; glycogen concentration vs RFU)?
Answer: −349.2 ± 96.7

Question: And the Linear relationship ([5]; glycogen concentration vs RFU)?
Answer: Significant

Question: What about the “Quality of Gradient” value ([5]; glycogen concentration vs RFU) of the same compound?
Answer: Negative

Question: What about the “Gradient Parameters” value ([5]; heparin concentration vs RFU) of the same compound?
Answer: −12.4 ± 108

Question: And the Linear relationship ([5]; heparin concentration vs RFU)?
Answer: Not Significant

Question: And the “Quality of Gradient” value ([5]; heparin concentration vs RFU)?
Answer: Horizontal

Question: And the Sensitivity ([5]; to glycogen)?
Answer: Yes

Question: And the Sensitivity ([5]; to heparin)?
Answer: No

Question: What about the “RFU change (Correlation analysis)” value ([6]; Chondroitin Sulfate A 5-0.019 mg/ml, 3 μM probe, probe-specific excitation λ, emission 545 nm) of the same compound?
Answer: Unclear

Question: What about the “RFU change (Signal deviation with increasing [Carbohydrate])” value [6, 17] of the same compound?
Answer: Decreases

Question: What about the λmax change [6, 17] of the same compound?
Answer: No change

Question: What about the “Gradient Parameters” value [6, 18] of the same compound?
Answer: 125.3 ± 156.5

Question: What about the “Quality of Gradient” value [6, 18] of the same compound?
Answer: Horizontal

Question: And the Sensitivity ([6]; to Chondroitin Sulfate A)?
Answer: No
